Measured values: PMC12414871, “Unraveling the functional dynamics of Caenorhabditis elegans stress‐responsive omega class GST‐44” (The Febs Journal, 2025)

Target: T1, GST‐44 (Caenorhabditis elegans, UniProt O45352)
T1 construct: recombinant, E. coli BL21(DE3), vector pJC40 with removable N-terminal His tag, Ni-NTA purified
Experiment: thioltransferase assay, substrate saturation curve and Lineweaver-Burk diagram
Format: biochemical
Conditions: co-substrate GSH (thioltransferase assay; reduction of spontaneously formed mixed disulfide)

T1 sequence (O45352 entry or part of it): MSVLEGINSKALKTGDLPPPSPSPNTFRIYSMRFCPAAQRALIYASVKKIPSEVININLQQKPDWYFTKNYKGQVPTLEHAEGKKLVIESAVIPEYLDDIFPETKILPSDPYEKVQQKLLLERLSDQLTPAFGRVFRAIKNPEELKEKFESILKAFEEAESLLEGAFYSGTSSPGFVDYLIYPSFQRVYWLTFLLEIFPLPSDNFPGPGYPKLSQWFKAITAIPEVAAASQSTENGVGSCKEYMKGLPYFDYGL

OCCSSCCO [2‐hydroxyethyl disulfide]
Km: 160 µM
